{
  "source": "paper PMC7316778",
  "about": "(Nature Communications, 2020)",
  "key": {"PRKCB1 (PKC beta I)": {"molecular_target": "PRKCB1 (PKC beta I) (Homo sapiens, UniProt P05771)", "sequence (P05771 whole entry)": "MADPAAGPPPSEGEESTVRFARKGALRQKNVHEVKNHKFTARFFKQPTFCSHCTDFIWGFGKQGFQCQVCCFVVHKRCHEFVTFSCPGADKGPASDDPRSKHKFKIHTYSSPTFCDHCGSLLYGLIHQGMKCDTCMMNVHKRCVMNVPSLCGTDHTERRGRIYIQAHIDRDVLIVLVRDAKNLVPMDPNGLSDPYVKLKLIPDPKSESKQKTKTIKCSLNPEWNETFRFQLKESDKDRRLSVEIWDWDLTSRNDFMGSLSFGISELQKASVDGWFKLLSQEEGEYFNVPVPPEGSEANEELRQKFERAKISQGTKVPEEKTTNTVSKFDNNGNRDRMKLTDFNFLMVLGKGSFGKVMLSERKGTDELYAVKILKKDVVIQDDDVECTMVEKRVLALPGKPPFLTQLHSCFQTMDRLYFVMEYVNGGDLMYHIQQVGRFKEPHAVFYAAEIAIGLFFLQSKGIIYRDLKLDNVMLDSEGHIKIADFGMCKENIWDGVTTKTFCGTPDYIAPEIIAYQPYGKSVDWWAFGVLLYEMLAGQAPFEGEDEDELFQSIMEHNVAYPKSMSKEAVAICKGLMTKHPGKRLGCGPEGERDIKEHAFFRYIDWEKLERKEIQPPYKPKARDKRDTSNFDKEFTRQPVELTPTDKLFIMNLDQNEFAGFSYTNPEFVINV", "experiment": "SelectScreen kinase assay"}, "BMX": {"molecular_target": "T1, BMX (Homo sapiens, UniProt P51813)", "T1 sequence (P51813 1-675)": "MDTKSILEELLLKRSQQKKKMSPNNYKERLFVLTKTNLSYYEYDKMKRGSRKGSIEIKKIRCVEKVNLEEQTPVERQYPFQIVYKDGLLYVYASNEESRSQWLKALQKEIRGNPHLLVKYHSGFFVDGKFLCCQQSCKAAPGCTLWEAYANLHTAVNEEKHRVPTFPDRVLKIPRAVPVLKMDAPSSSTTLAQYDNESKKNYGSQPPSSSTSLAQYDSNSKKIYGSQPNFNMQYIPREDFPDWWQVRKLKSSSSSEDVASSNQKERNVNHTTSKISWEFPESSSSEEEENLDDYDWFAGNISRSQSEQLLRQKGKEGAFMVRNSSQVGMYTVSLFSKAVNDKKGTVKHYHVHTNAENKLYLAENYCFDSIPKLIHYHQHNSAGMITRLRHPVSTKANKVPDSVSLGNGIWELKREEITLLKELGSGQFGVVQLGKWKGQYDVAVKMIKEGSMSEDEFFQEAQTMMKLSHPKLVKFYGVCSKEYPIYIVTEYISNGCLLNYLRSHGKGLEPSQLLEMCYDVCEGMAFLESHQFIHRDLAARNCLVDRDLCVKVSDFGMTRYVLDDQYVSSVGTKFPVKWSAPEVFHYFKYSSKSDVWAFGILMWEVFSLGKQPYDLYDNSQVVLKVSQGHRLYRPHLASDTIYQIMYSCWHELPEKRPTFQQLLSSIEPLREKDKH", "experiment": "SelectScreen kinase assay"}, "CLK4": {"molecular_target": "CLK4 (Homo sapiens, UniProt Q9HAZ1)", "sequence (Q9HAZ1 whole entry, species assumed)": "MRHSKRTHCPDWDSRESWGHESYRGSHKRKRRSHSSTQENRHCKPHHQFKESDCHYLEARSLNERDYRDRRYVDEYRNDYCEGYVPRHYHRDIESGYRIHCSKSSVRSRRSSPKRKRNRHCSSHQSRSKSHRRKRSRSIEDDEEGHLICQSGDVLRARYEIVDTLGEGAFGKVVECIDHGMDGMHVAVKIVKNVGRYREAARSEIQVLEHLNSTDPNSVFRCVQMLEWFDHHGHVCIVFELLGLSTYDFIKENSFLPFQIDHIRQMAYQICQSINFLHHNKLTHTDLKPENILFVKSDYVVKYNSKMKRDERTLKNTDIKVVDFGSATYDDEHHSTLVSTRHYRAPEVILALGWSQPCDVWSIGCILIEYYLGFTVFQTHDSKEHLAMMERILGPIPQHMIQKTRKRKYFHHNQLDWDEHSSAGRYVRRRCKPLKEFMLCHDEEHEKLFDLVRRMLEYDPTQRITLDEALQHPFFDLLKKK", "experiment": "SelectScreen kinase assay"}, "RPS6KB1 (p70S6K)": {"molecular_target": "RPS6KB1 (p70S6K) (Homo sapiens, UniProt P23443)", "sequence (P23443 whole entry)": "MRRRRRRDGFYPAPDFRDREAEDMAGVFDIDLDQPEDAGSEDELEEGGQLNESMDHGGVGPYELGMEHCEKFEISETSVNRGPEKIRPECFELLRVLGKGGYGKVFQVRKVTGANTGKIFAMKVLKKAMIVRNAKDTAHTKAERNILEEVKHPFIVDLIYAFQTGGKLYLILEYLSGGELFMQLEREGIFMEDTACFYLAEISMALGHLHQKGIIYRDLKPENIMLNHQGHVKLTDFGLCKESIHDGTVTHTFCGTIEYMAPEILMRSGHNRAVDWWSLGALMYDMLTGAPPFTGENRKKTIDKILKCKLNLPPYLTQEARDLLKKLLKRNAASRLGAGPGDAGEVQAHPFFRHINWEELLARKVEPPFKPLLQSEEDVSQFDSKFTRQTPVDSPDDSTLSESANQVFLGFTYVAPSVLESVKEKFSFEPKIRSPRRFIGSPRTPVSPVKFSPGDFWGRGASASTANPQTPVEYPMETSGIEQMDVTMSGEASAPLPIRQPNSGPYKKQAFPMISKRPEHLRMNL", "experiment": "SelectScreen kinase assay"}, "PI4K2A (PI4K2 alpha)": {"molecular_target": "PI4K2A (PI4K2 alpha) (Homo sapiens, UniProt Q9BTU6)", "sequence (Q9BTU6 whole entry)": "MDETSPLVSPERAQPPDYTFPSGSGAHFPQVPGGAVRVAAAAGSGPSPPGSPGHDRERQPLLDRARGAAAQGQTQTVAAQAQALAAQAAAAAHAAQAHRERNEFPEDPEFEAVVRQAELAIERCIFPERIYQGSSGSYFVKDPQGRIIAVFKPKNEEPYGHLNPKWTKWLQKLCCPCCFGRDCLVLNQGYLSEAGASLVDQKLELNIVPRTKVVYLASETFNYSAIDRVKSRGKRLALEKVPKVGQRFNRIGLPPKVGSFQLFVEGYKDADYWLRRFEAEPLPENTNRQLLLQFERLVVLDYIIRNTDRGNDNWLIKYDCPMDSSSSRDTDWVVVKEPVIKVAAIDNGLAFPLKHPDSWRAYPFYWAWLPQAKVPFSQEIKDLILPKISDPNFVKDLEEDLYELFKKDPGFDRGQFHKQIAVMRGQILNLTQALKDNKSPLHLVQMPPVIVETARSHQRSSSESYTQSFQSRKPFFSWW", "experiment": "SelectScreen kinase assay"}, "[1]": {"molecular_target": "PIK3CA/PIK3R1 (p110a/p85a) (Homo sapiens, UniProt P42336)", "sequence (P42336 whole entry)": "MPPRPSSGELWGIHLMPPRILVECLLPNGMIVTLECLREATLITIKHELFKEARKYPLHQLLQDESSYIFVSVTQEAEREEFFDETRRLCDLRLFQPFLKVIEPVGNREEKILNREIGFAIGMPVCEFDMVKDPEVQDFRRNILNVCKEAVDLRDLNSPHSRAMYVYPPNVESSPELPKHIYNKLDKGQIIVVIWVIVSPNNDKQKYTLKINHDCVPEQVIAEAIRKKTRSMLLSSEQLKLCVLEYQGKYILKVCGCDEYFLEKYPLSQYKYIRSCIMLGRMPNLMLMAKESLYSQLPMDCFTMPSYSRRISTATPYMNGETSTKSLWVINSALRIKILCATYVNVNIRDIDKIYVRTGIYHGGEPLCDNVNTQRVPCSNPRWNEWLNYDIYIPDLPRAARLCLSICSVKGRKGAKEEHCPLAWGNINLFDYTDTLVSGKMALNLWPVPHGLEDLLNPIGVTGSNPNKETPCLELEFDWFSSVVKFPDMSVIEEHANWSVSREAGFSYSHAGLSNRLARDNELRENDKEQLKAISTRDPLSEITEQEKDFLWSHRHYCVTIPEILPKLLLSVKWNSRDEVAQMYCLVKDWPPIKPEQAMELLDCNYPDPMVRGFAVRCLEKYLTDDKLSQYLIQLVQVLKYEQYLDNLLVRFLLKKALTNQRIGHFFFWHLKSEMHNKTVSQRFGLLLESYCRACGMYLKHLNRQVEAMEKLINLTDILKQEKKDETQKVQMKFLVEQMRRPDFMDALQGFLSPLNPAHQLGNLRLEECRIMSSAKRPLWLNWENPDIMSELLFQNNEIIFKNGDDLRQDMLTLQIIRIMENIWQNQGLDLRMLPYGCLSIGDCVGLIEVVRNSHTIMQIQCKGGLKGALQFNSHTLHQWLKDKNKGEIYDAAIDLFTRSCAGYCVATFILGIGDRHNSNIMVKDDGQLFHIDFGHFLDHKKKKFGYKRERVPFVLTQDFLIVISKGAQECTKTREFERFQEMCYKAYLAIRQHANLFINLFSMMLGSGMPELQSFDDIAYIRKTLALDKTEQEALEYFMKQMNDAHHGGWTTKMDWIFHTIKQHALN", "sequence (P27986 whole entry partner)": "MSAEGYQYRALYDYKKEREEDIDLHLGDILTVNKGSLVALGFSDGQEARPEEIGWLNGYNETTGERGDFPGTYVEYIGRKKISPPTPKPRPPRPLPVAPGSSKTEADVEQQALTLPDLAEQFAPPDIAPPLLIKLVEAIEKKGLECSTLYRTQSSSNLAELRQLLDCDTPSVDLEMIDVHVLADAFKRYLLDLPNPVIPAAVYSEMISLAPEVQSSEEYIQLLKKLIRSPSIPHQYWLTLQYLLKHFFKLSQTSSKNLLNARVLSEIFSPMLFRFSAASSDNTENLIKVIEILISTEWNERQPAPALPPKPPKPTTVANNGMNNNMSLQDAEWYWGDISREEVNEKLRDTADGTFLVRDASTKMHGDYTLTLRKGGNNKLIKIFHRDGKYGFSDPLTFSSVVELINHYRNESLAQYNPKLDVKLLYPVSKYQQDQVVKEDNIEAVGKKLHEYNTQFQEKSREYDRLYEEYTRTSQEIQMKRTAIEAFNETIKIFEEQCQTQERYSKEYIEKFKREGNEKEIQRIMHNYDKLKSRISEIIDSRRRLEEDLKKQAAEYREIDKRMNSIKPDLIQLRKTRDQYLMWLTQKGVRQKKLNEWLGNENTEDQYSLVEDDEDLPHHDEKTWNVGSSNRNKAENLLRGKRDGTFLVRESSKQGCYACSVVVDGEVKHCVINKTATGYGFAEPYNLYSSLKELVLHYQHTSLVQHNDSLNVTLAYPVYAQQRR", "experiment": "SelectScreen kinase assay", "conditions": "for Inhibition at 1 µM (%): PIK3CA/PIK3R1 (p110 alpha/p85 alpha), Adapta, ATP Km app"}, "EPHB2": {"molecular_target": "T2, EPHB2 (Homo sapiens, UniProt P29323)", "T2 sequence (P29323 19-1055)": "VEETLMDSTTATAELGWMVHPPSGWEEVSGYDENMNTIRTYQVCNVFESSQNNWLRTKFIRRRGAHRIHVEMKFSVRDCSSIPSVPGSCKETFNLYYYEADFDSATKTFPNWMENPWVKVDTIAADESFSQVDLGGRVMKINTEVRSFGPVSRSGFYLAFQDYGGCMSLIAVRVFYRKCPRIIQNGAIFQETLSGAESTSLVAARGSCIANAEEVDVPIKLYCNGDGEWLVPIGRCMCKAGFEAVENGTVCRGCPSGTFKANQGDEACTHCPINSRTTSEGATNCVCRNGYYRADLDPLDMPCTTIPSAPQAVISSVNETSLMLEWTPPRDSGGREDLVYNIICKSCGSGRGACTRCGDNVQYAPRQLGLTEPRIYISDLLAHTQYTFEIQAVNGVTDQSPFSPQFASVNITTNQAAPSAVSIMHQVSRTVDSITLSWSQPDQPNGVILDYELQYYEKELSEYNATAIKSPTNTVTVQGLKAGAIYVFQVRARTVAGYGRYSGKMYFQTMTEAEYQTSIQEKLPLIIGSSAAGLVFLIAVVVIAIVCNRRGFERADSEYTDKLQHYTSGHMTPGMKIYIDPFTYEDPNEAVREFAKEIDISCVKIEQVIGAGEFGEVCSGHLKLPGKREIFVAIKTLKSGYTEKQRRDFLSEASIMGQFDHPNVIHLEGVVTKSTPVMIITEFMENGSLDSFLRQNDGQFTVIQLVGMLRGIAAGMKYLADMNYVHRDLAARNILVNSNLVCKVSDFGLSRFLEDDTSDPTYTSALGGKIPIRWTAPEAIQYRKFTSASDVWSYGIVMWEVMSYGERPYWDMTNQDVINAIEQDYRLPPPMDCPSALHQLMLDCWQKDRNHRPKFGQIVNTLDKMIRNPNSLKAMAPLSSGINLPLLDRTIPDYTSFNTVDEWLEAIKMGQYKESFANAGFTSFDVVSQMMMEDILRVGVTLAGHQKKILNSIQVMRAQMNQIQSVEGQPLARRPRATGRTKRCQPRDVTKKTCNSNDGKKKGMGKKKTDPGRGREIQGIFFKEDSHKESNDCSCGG", "experiment": "SelectScreen kinase assay", "conditions": "for Inhibition at 1 µM (%): EPHB2, ZLYTE, ATP Km app"}, "LIMK1": {"molecular_target": "LIMK1 (Homo sapiens, UniProt P53667)", "sequence (P53667 whole entry)": "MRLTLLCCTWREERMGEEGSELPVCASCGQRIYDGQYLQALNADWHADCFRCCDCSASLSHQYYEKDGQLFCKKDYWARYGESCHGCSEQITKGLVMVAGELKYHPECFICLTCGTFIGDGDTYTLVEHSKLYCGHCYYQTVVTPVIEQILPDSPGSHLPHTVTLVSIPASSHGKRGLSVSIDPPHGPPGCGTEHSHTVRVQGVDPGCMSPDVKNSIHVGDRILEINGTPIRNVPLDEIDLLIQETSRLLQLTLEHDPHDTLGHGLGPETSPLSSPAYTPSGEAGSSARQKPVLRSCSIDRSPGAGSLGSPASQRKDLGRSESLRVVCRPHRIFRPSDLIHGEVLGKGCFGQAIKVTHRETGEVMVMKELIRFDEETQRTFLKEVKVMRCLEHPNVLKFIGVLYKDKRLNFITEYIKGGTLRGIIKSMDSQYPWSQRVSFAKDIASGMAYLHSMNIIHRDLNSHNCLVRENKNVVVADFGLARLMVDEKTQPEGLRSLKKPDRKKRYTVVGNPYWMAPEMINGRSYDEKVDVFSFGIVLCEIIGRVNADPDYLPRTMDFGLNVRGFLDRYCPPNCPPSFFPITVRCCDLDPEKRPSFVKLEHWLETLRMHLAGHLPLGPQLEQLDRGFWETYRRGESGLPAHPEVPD", "experiment": "SelectScreen kinase assay"}, "FES^S700C HL-60 cells": {"tested_on": "FES^S700C HL-60 cells", "experiment": "CD11b surface expression, PMA-induced macrophage differentiation", "format": "cell-based, human", "conditions": "for CD11b-positive cells (%): Figure 6d, S700C"}, "full-length FES^S700C": {"molecular_target": "full-length FES^S700C (Homo sapiens, UniProt P07332, S700C)", "experiment": "Competitive probe labeling with WEL033 in HEK293T lysate (gel-based)"}, "[2]": {"conditions": "1 h, 1 μM WEL028, 1 h preincubation"}},
  "note": "“And” between values parts separate entries of the source, which are not always exact repeats. Equal values may be shown once. Read-outs that look alike come from different tables or passages of the source.",
  "data": [
    {"smiles": "C#CCOc1ccc(Nc2ncc(Cl)c(Nc3ccccc3NC(=O)C=C)n2)c(OC)c1", "note": "[Compound 6]", "values": [
      {"measurement": "inhibition at 1 µM", "setting": "PRKCB1 (PKC beta I); [2]", "result": 16, "unit": "%"},
      {"measurement": "Inhibition at 1 µM (%)", "setting": "PRKCB1 (PKC beta I); PRKCB1 (PKC beta I), 1 µM, ZLYTE, ATP Km app", "result": 25, "unit": "%"},
      {"measurement": "inhibition at 1 µM", "setting": "BMX; [2]", "result": 16, "unit": "%"},
      {"measurement": "Inhibition at 1 µM (%)", "setting": "BMX; BMX, 1 µM, ZLYTE, ATP Km app, listed as WEL028, 1 µM", "result": 18, "unit": "%"},
      {"measurement": "inhibition at 1 µM", "setting": "BMX; read-out: Inhibition at 1 µM (%), BMX, 1 µM, ZLYTE, ATP Km app", "result": 14, "unit": "%"},
      {"measurement": "IC50", "setting": "CLK4", "result": 1260, "unit": "nM"},
      {"measurement": "inhibition at 1 µM", "setting": "CLK4; [2]", "result": 53, "unit": "%"},
      {"measurement": "inhibition at 10 µM", "setting": "CLK4; 1 h, log[inhibitor] (M) -5.00, LanthaScreen Binding", "result": 30, "unit": "%"},
      {"measurement": "inhibition at 3.311 µM", "setting": "CLK4; 1 h, log[inhibitor] (M) -5.48, LanthaScreen Binding", "result": 55, "unit": "%"},
      {"measurement": "inhibition at 1.122 µM", "setting": "CLK4; 1 h, log[inhibitor] (M) -5.95, LanthaScreen Binding", "result": 64, "unit": "%"},
      {"measurement": "inhibition at 0.3715 µM", "setting": "CLK4; 1 h, log[inhibitor] (M) -6.43, LanthaScreen Binding", "result": 39, "unit": "%"},
      {"measurement": "inhibition at 0.123 µM", "setting": "CLK4; 1 h, log[inhibitor] (M) -6.91, LanthaScreen Binding", "result": 26, "unit": "%"},
      {"measurement": "inhibition at 0.0138 µM", "setting": "CLK4; 1 h, log[inhibitor] (M) -7.86, LanthaScreen Binding", "result": 15, "unit": "%"},
      {"measurement": "inhibition at 0.001514 µM", "setting": "CLK4; 1 h, log[inhibitor] (M) -8.82, LanthaScreen Binding", "result": 11, "unit": "%"},
      {"measurement": "inhibition at 0.004571 µM", "setting": "CLK4; 1 h, log[inhibitor] (M) -[…], LanthaScreen Binding", "result": 8, "unit": "%"},
      {"measurement": "Inhibition at 1 µM (%)", "setting": "CLK4; CLK4, 1 µM, LanthaScreen Binding, listed as WEL028, 1 µM", "result": 52, "unit": "%"},
      {"measurement": "Apparent fold selectivity", "setting": "CLK4; IC50 on that kinase divided by IC50 on FES^S700C", "result": 272, "unit": "fold"},
      {"measurement": "inhibition at 1 µM", "setting": "CLK4; read-out: Inhibition at 1 µM (%), CLK4, 1 µM, LanthaScreen Binding", "result": 54, "unit": "%"},
      {"measurement": "Inhibition at 1 µM (%)", "setting": "RPS6KB1 (p70S6K); 1 µM, ZLYTE, ATP Km app", "result": 15, "unit": "%"},
      {"measurement": "inhibition at 1 µM", "setting": "RPS6KB1 (p70S6K); [2]", "result": 4, "unit": "%"},
      {"measurement": "inhibition at 1 µM", "setting": "PI4K2A (PI4K2 alpha); [2]", "result": 0, "unit": "%"},
      {"measurement": "Inhibition at 1 µM (%)", "setting": "PI4K2A (PI4K2 alpha); PI4K2A (PI4K2 alpha), 1 µM, Adapta, ATP 10, listed as WEL028, 1 µM", "result": "2% and -2%"},
      {"measurement": "inhibition at 1 µM", "setting": "[1]; [2]", "result": 14, "unit": "%"},
      {"measurement": "Inhibition at 1 µM (%)", "setting": "[1]", "result": 19, "unit": "%"},
      {"measurement": "Inhibition at 1 µM (%)", "setting": "[1]; listed as WEL028, 1 µM", "result": 9, "unit": "%"},
      {"measurement": "Inhibition (%)", "setting": "EPHB2; 1 μM WEL028, 1 h preincubation", "result": 4, "unit": "%"},
      {"measurement": "Inhibition at 1 µM (%)", "setting": "EPHB2", "result": 2, "unit": "%"},
      {"measurement": "Inhibition at 1 µM (%)", "setting": "EPHB2; listed as WEL028, 1 µM", "result": 5, "unit": "%"},
      {"measurement": "inhibition at 1 µM", "setting": "LIMK1; [2]", "result": 14, "unit": "%"},
      {"measurement": "Inhibition at 1 µM (%)", "setting": "LIMK1; LIMK1, 1 µM, LanthaScreen Binding, listed as WEL028, 1 µM", "result": 12, "unit": "%"},
      {"measurement": "inhibition at 1 µM", "setting": "LIMK1; read-out: Inhibition at 1 µM (%), LIMK1, 1 µM, LanthaScreen Binding", "result": 16, "unit": "%"},
      {"measurement": "Increase in CD11b expression", "setting": "FES^S700C HL-60 cells; 100 nM WEL028", "result": 3, "unit": "%"},
      {"measurement": "Percentage of CD11b-positive cells", "setting": "FES^S700C HL-60 cells; 100 nM WEL028", "result": "minimally affected"},
      {"measurement": "CD11b expression", "setting": "FES^S700C HL-60 cells; 1 µM WEL028", "result": "completely failed to express CD11b"},
      {"measurement": "CD11b-positive cells (%)", "setting": "FES^S700C HL-60 cells; WEL028 100 nM", "result": "93.479% and 95.735% and 92.126%"},
      {"measurement": "CD11b-positive cells (%)", "setting": "FES^S700C HL-60 cells; WEL028 1 µM", "result": "19.047% and 18.635% and 20.613%"},
      {"measurement": "IC50", "setting": "full-length FES^S700C", "result": 12.6, "unit": "nM"}
    ]}
  ]
}
